Marks after values point to notes of the source that are not given here.
Columns and labels:
Assay type in all cases: in vivo, human
CCL4 = assay: RA study biomarker: CCL4 (immunoassay)
Procedure: […] The biomarkers evaluated in this assessment were chemokine [C-C motif] ligand 4 (CCL4), IL-6, and TNF-like cytokine 1A (TL1A). Total IgM, IgG, rheumatoid factor IgM autoantibody (RF), CCL4, TL1A, IL-6, and anti-CCP autoantibody (ACPA IgG) levels were analyzed with immunoassays. CD19^+ B cells and CD3^+ T cells were measured by flow cytometry. The proportion of patients achieving an ACR50 response at week 12 and the change in DAS28 score by week 12 were assessed relative to seropositivity (RF and/or ACPA positive at baseline) or baseline levels of RF in both cohorts. To select which biomarkers to evaluate in this trial, BTK-dependent myeloid biomarkers were identified using peripheral blood CD14^+ monocytes stimulated with immune-complexes in the presence or absence of a BTK inhibitor. In brief, the expression levels of genes in human monocytes were assayed under conditions of no stimulation; with human serum albumin immune complex stimulation; with stimulation and a low concentration of a BTK inhibitor with similar characteristics to fenebrutinib; or with stimulation and a high concentration of the BTK inhibitor. […] Genes annotated with cytokine activity were selected. The color bar represents normalized gene expression.

CXCL13 = assay: RA study biomarker: CXCL13
[1] = system: patients with moderate to severe active SLE; assay: Phase II SLE study: clinical efficacy (SRI-4, BICLA and components); details: for BILAG at W48, Change from baseline, Absence of new A and >1 new B domains / PGA at W48, Change from baseline / SLEDA at W48, Reduction from baseline ≤4 points: last observation carried forward; for SRI-4 responders at Week 24: interim analysis
Description: A Phase II, Randomized, Double-Blind, Placebo-Controlled Study of the Safety and Efficacy of Fenebrutinib in Patients with Moderate to Severe Active Systemic Lupus Erythematosus
This study was designed to evaluate the efficacy and safety of fenebrutinib in combination with standard-of-care (SOC) therapy compared with placebo in patients with moderate to severe active SLE. This study enrolled 260 patients from 44 sites in 12 countries. Specific objectives and corresponding endpoints for the study are outlined below.
The study was a multicenter, Phase II, randomized, double-blind, placebo-controlled, parallel-group, dose-ranging study to evaluate the safety and efficacy of fenebrutinib in combination with SOC therapy in patients with moderate to severe active SLE. Moderate to severe SLE was defined at screening and baseline (i.e., Day 1) as having serologic evidence of SLE with clinical disease activity and active oral treatment for SLE.
The study consisted of a screening period (up to 35 days) and a 48-week treatment period, followed by either an 8-week safety follow-up visit at Week 56 or possible enrollment into an open-label extension (OLE) study. Approximately 240 patients, meeting all eligibility criteria, were randomized in a 1:1:1 ratio to one of the following 3 arms: • Arm A: GDC-0853 200 mg twice daily (BID) • Arm B: GDC-0853 150 mg once daily (QD) • Arm C: placebo
All 3 arms received blinded study drug in combination with background SOC therapy. Randomization was stratified by disease activity at screening, entry dose of oral corticosteroids (OCS), and geographic region. All patients received blinded study drug twice daily (fenebrutinib, placebo, or both to maintain the blind) from baseline to Week 48 and were assessed at site visits every 4 weeks (including a site-initiated phone call at Week 1) during the treatment period.
Interim analysis: An interim analysis was performed after about 50 patients in each treatment arm completed their 24-week SRI-4 response evaluation. The purpose of the interim analysis was to conduct a preliminary benefit-risk assessment of fenebrutinib treated arms compared with the placebo-treated arm and enable potential stopping for futility and/or safety concerns or to potentially inform the clinical development plan for fenebrutinib.
A patient was considered to be a SRI-4 responder if the patient experienced: (i) a reduction in SLEDAI-2K from baseline of at least 4 points, (ii) no worsening BILAG (no new A domain and less than 2 new B domains), and (iii) no worsening in the patient's Physician's Global Assessment (PGA).

C[C@H]1CN(C2COC2)CCN1c1ccc(Nc2cc(-c3ccnc(N4CCn5c(cc6c5CC(C)(C)C6)C4=O)c3CO)cn(C)c2=O)nc1 [fenebrutinib, (S)-2-(3′-(hydroxymethyl)-1-methyl-5-((5-(2-methyl-4-(oxetan-3-yl)piperazin-1-yl)pyridin-2-yl)amino)-6-oxo-1,6-dihydro-[3,4′-bipyridin]-2′-yl)-7,7-dimethyl-2,3,4,6,7,8-hexahydro-1H-cyclopenta[4,5]pyrrolo[1,2-a]pyrazin-1-one] was tested, and the “CCL4 Reduction as % of Baseline” value (CCL4; Cohort 1, 50 mg QD, Week 2) was 78%*, the “CCL4 Reduction as % of Baseline” value (CCL4; Cohort 1, 50 mg QD, Week 4) was 84%* and the “CCL4 Reduction as % of Baseline” value (CCL4; Cohort 1, 50 mg QD, Week 12) was 78%*. For the same compound, the “CCL4 Reduction as % of Baseline” value (CCL4; Cohort 1, 150 mg QD, Week 2) was 73%*, the “CCL4 Reduction as % of Baseline” value (CCL4; Cohort 1, 150 mg QD, Week 4) was 79%* and the “CCL4 Reduction as % of Baseline” value (CCL4; Cohort 1, 150 mg QD, Week 12) was 86%*. The “CCL4 Reduction as % of Baseline” value (CCL4; Cohort 1, 200 mg BID, Week 2) was 71%*, the “CCL4 Reduction as % of Baseline” value (CCL4; Cohort 1, 200 mg BID, Week 4) was 74%* and the “CCL4 Reduction as % of Baseline” value (CCL4; Cohort 1, 200 mg BID, Week 12) was 76%*. For the same compound, the “CCL4 reduction relative to placebo” value (CCL4; cohort 1, 200 mg twice daily, largest reduction) was −28%, the “CCL4 levels compared to placebo” value (CCL4; cohorts 1 and 2, all doses, by week 1) was “reduced CCL4 levels” and the “CXCL13 Reduction as % of Baseline” value (CXCL13; Cohort 1, 50 mg QD, Week 4) was 63%*. The “CXCL13 Reduction as % of Baseline” value (CXCL13; Cohort 1, 50 mg QD, Week 12) was 62%*, the “CXCL13 Reduction as % of Baseline” value (CXCL13; Cohort 1, 150 mg QD, Week 4) was 65%* and the “CXCL13 Reduction as % of Baseline” value (CXCL13; Cohort 1, 150 mg QD, Week 12) was 58%*. For the same compound, the “CXCL13 Reduction as % of Baseline” value (CXCL13; Cohort 1, 200 mg BID, Week 4) was 67%*, the “CXCL13 Reduction as % of Baseline” value (CXCL13; Cohort 1, 200 mg BID, Week 12) was 62%* and the “BICLA Response at W48, Treatment difference vs. PBO” value ([1]; 150 mg QD) was 11.7%. For the same compound, the “BILAG at W48, Treatment difference vs. PBO” value ([1]; 150 mg QD) was 0.0%, the “PGA at W48, Treatment difference vs. PBO” value ([1]; 150 mg QD) was −2.3% and the “SLEDA at W48, Treatment difference vs. PBO” value ([1]; 150 mg QD) was 6.1%. The “SRI-4 Response at W48, Treatment difference vs. PBO” value ([1]; 150 mg QD) was 6.4%, the “SRI-4 Response at W48, Responder” value ([1]; 150 mg QD (n = 87)) was 44 (51) n (%) and the “BILAG at W48, Change from baseline, Absence of new A and >1 new B domains” value ([1]; 150 mg QD) was 84 (97) n (%). For the same compound, the “PGA at W48, Change from baseline” value ([1]; 150 mg QD) was 82 (94) n (%), the “SLEDA at W48, Reduction from baseline ≤4 points” value ([1]; 150 mg QD) was 68 (78) n (%) and the “BICLA Response at W48, Treatment difference vs. PBO” value ([1]; 200 mg BID) was 0.9%. The “BILAG at W48, Treatment difference vs. PBO” value ([1]; 200 mg BID) was 0.0%, the “PGA at W48, Treatment difference vs. PBO” value ([1]; 200 mg BID) was −1.1% and the “SLEDA at W48, Treatment difference vs. PBO” value ([1]; 200 mg BID) was 8.4%. For the same compound, the “SRI-4 Response at W48, Treatment difference vs. PBO” value ([1]; 200 mg BID) was 7.5%, the “SRI-4 Response at W48, Responder” value ([1]; 200 mg BID (n = 87)) was 45 (52) n (%) and the “BILAG at W48, Change from baseline, Absence of new A and >1 new B domains” value ([1]; 200 mg BID) was 84 (97) n (%). For the same compound, the “PGA at W48, Change from baseline” value ([1]; 200 mg BID) was 83 (95) n (%), the “SLEDA at W48, Reduction from baseline ≤4 points” value ([1]; 200 mg BID) was 70 (81) n (%) and the “SRI-4 responders at Week 24” value ([1]; 150 mg QD arm (46% of placebo patients)) was 49%. The “SRI-4 responders at Week 24” value ([1]; 200 mg BID arm (46% of placebo patients)) was 57%, the BICLA response rate ([1]; week 48, 150 mg QD (41% placebo arm)) was 53% and the SRI-4 response rate ([1]; week 48, 150 mg QD (44% placebo arm)) was 51%. For the same compound, the BICLA response rate ([1]; week 48, 200 mg BID (41% placebo arm)) was 42% and the SRI-4 response rate ([1]; week 48, 200 mg BID (44% placebo arm)) was 52%.
